Laboratory results taken from patent US6150385A, “1,3,4-thiadiazoles useful for the treatment of CMV infections” (Pharmacia & Upjohn Company, priority 1999, dated 2000).

biological target: T1, HCMV polymerase (Human cytomegalovirus, UniProt P08546); assay: HCMV polymerase assay (scintillation proximity assay); assay type: biochemical; conditions: percentage of inhibition at 25 μM concentration in CMV polymerase assay
T1 construct: made in house; host or cells: SF-9 insect cells infected with recombinant baculovirus
T1 sequence (P08546 whole entry): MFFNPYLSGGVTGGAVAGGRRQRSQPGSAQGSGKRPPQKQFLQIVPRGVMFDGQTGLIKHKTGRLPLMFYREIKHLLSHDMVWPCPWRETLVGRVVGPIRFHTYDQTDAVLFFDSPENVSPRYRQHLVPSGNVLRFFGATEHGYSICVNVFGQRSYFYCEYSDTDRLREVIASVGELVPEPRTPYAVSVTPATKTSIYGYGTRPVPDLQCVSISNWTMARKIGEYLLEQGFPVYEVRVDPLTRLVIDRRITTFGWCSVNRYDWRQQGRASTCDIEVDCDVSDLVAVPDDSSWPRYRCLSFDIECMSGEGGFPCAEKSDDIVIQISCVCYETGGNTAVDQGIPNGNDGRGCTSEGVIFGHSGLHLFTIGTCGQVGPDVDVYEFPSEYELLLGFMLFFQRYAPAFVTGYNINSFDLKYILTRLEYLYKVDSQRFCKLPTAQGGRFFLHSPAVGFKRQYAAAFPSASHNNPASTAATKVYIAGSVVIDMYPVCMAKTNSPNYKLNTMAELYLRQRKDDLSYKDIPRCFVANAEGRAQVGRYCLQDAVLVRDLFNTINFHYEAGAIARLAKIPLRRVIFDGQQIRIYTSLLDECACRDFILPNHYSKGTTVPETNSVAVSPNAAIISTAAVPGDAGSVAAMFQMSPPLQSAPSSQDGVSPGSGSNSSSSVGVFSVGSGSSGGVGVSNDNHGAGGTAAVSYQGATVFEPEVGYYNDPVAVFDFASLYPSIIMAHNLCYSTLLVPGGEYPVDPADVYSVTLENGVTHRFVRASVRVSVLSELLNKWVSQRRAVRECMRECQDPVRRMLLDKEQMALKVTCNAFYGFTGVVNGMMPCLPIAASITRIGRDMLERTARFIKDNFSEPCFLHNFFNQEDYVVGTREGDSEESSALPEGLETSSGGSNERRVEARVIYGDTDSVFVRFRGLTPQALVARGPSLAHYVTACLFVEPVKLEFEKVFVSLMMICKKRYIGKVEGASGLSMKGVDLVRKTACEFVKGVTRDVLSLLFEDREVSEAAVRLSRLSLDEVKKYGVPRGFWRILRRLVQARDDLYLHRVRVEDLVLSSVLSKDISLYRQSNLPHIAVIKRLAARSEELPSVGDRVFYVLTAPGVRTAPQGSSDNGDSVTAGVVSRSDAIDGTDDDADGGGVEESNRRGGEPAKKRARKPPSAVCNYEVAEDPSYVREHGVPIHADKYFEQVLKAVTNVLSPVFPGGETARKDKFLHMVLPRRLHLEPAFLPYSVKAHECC
How it was run: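 Values are percent inhibition at 25 μM, measured by scintillation proximity after capture of biotinylated poly(dA)-oligo(dT) (6 nM) extended with 90 nM 3H-dTTP. Recombinant SF-9-derived enzyme reacted 30 min at 25 or 37 °C in HEPES pH 7.5/KCl/MgCl2/BSA buffer, ±2 mM CHAPS, before EDTA termination.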

SMILES	inhibition at 25 µM [%]	% Inhib [%]
O=C(Nc1nnc(NCCc2c[nH]c3ccccc23)s1)c1cccc([N+](=O)[O-])c1 [compound 271, N-(5-{[2-(1H-indol-3-yl)ethyl]amino}-1,3,4-thiadiazol-2-yl)-3-nitrobenzamide]	38.4	–
O=C(Nc1nnc(NCCCn2ccnc2)s1)c1ccc(Br)cc1 [compound 272, 4-bromo-N-(5-{[3-(1H-imidazol-1-yl)propyl]amino}-1,3,4-thiadiazol-2-yl)benzamide]	38.2	–
O=C(Nc1nnc(NCc2ccc3c(c2)OCO3)s1)c1ccc(Br)cc1 [compound 273, N-{5-[(1,3-benzodioxol-5-ylmethyl)amino]-1,3,4-thiadiazol-2-yl}-4-bromobenzamide]	38.1	–
O=C(/C=C/c1ccccc1)Nc1nnc(NC2CCCCCC2)s1 [compound 274, (E)-N-[5-(cycloheptylamino)-1,3,4-thiadiazol-2-yl]-3-phenyl-2-propenamide]	38.1	–
O=C(Nc1nnc(NCCCNC2CCCCC2)s1)c1cc(F)cc(F)c1 [compound 275, N-(5-{[3-(cyclohexylamino)propyl]amino]-1,3,4-thiadiazol-2-yl)-3,5-difluorobenzamide]	37.9	–
O=C(/C=C/c1ccccc1Cl)Nc1nnc(NC2CCC2)s1 [compound 276, (E)-3-(2-chlorophenyl)-N-[5-(cyclobutylamino)-1,3,4-thiadiazol-2-yl]-2-propenamide]	37.9	–
O=C(Nc1nnc(NCCC(c2ccccc2)c2ccccc2)s1)c1cc2ccccc2s1 [compound 277, N-{5-[(3,3-diphenylpropyl)amino]-1,3,4-thiadiazol-2-yl}-1-benzothiophene-2-carboxamide]	37.9	–
O=C(Nc1nnc(NC2CCCCCC2)s1)c1ccc(S(=O)(=O)F)cc1 [compound 278, 4-({[5-(cycloheptylamino)-1,3,4-thiadiazol-2-yl]amino}carbonyl)benzenesulfonyl fluoride]	–	37.5
CCCCCCCC/C=C/CCCCCCCC(=O)Nc1nnc(NC2CCc3ccccc32)s1 (centres unmarked) [compound 279, (E)-N-[5-(2,3-dihydro-1H-inden-1-ylamino)-1,3,4-thiadiazol-2-yl]-9-octadecenamide]	37.4	–
COc1ccc(CNc2nnc(NC(=O)c3c(Cl)cccc3Cl)s2)cc1OC [compound 280, 2,6-dichloro-N-{5-[(3,4-dimethoxybenzyl)amino]-1,3,4-thiadiazol-2-yl}benzamide]	37.3	–
O=C(Nc1nnc(NCCC(c2ccccc2)c2ccccc2)s1)c1cc(F)cc(F)c1 [compound 281, N-{5-[(3,3-diphenylpropyl)amino]-1,3,4-thiadiazol-2-yl}-3,5-difluorobenzamide]	37.3	–
O=C(Nc1nnc(NCCc2ccccc2)s1)c1ccc([N+](=O)[O-])o1 [compound 282, 5-nitro-N-[5-(phenethylamino)-1,3,4-thiadiazol-2-yl]-2-furamide]	37.1	–
CCCCC(CC)CNc1nnc(NC(=O)c2c(Cl)cccc2Cl)s1 (centres unmarked) [compound 283, 2,6-dichloro-N-{5-[(2-ethylhexyl)amino]-1,3,4-thiadiazol-2-yl}benzamide]	37	–
O=C(Nc1nnc(NCCc2c[nH]c3ccccc23)s1)c1ccc(C(F)(F)F)cc1 [compound 284, N-(5-{[2-(1H-indol-3-yl)ethyl]amino}-1,3,4-thiadiazol-2-yl)-4-(trifluoromethyl)benzamide]	36.7	–
CCCCCCCC/C=C/CCCCCCCC(=O)Nc1nnc(NCC2CCCCC2)s1 [compound 285, (E)-N-{5-[(cyclohexylmethyl)amino]-1,3,4-thiadiazol-2-yl}-9-octadecenamide]	36.7	–
CCCCCCCC/C=C/CCCCCCCC(=O)Nc1nnc(NCC(CC)CCCC)s1 (centres unmarked) [compound 286, (E)-N-{5-[(2-ethylhexyl)amino]-1,3,4-thiadiazol-2-yl}-9-octadecenamide]	36.3	–
O=C(Nc1nnc(NC2CC2)s1)c1cc2ccccc2s1 [compound 287, N-[5-(cyclopropylamino)-1,3,4-thiadiazol-2-yl]-1-benzothiophene-2-carboxamide]	36.2	–
O=C(Nc1nnc(NC2CCCCCC2)s1)c1ccc(I)cc1 [compound 288, N-[5-(cycloheptylamino)-1,3,4-thiadiazol-2-yl]-4-iodobenzamide]	36.2	–
O=C(Nc1nnc(NCc2ccncc2)s1)c1ccc(I)cc1 [compound 289, 4-iodo-N-{5-[(4-pyridinylmethyl)amino]-1,3,4-thiadiazol-2-yl}benzamide]	36	–
O=C(/C=C/c1ccccc1)Nc1nnc(NC2CCN(Cc3ccccc3)CC2)s1 [compound 290, (E)-N-{5-[(1-benzyl-4-piperidinyl)amino]-1,3,4-thiadiazol-2-yl}-3-phenyl-2-propenamide]	35.9	–
O=C(Nc1nnc(NCCNc2ccccc2)s1)c1cccc([N+](=O)[O-])c1 [compound 291, N-{5-[(2-anilinoethyl)amino]-1,3,4-thiadiazol-2-yl}-3-nitrobenzamide]	35.7	–

SMILES	inhibition at 25 µM [%]	% Inhib [%]
CCSCCNc1nnc(NC(=O)c2c(Cl)cccc2Cl)s1 [compound 292, 2,6-dichloro-N-(5-{[2-(ethylsulfanyl)ethyl]amino}-1,3,4-thiadiazol-2-yl)benzamide]	35.6	–
CCOc1ccc2ccccc2c1C(=O)Nc1nnc(NCCC(=O)OC(C)(C)C)s1 [compound 293, tert-butyl 3-[(5-{[(2-ethoxy-1-naphthyl)carbonyl]amino}-1,3,4-thiadiazol-2-yl)amino]propanoate]	35.5	–
O=C(/C=C/c1ccccc1Cl)Nc1nnc(NCCNc2ccccc2)s1 [compound 294, (E)-N-{5-[(2-anilinoethyl)amino]-1,3,4-thiadiazol-2-yl}-3-(2-chlorophenyl)-2-propenamide]	35.4	–
O=C(Nc1nnc(NCCc2c[nH]c3ccccc23)s1)c1ccc(Cl)c(Cl)c1 [compound 295, 3,4-dichloro-N-(5-{[2-(1H-indol-3-yl)ethyl]amino}-1,3,4-thiadiazol-2-yl)benzamide]	35.4	–
O=C(Nc1nnc(NCCCN2CCCC2=O)s1)c1ccc([N+](=O)[O-])o1 [compound 296, 5-nitro-N-(5-{[3-(2-oxo-1-pyrrolidinyl)propyl]amino}-1,3,4-thiadiazol-2-yl)-2-furamide]	35.1	–
O=C(Nc1nnc(NCCC(c2ccccc2)c2ccccc2)s1)c1ccc(I)cc1 [compound 297, N-{5-[(3,3-diphenylpropyl)amino]-1,3,4-thiadiazol-2-yl}-4-iodobenzamide]	35	–
O=C(Nc1nnc(NCCC(c2ccccc2)c2ccccc2)s1)c1ccc([N+](=O)[O-])o1 [compound 298, N-{5-[(3,3-diphenylpropyl)amino]-1,3,4-thiadiazol-2-yl}-5-nitro-2-furamide]	35	–
CC(C)c1cc(C(C)C)c(C(=O)Nc2nnc(NCCC(c3ccccc3)c3ccccc3)s2)c(C(C)C)c1 [compound 299, N-{5-[(3,3-diphenylpropyl)amino]-1,3,4-thiadiazol-2-yl}-2,4,6-triisopropylbenzamide]	34.9	–
O=C(Nc1nnc(NC2CCCCCC2)s1)c1cc(F)cc(F)c1 [compound 300, N-[5-(cycloheptylamino)-1,3,4-thiadiazol-2-yl]-3,5-difluorobenzamide]	34.9	–
O=C(Nc1nnc(NCc2cccnc2)s1)c1cc2ccccc2s1 [compound 301, N-{5-[(3-pyridinylmethyl)amino]-1,3,4-thiadiazol-2-yl}-1-benzothiophene-2-carboxamide]	34.8	–
O=C(Nc1nnc(NCc2ccc(F)cc2)s1)c1cccc([N+](=O)[O-])c1 [compound 302, N-{5-[(4-fluorobenzyl)amino]-1,3,4-thiadiazol-2-yl}-3-nitrobenzamide]	34.8	–
COc1ccccc1C(=O)Nc1nnc(NCCc2c[nH]c3ccccc23)s1 [compound 303, N-(5-{[2-(1H-indol-3-yl)ethyl]amino}-1,3,4-thiadiazol-2-yl)-2-methoxybenzamide]	34.7	–
COc1ccccc1C(=O)Nc1nnc(NCC2CCCCC2)s1 [compound 304, N-{5-[(cyclohexylmethyl)amino]-1,3,4-thiadiazol-2-yl}-2-methoxybenzamide]	34.6	–
O=C(Nc1nnc(NCc2ccc3c(c2)OCO3)s1)c1ccc(F)cc1F [compound 305, N-{5-[(1,3-benzodioxol-5-ylmethyl)amino]-1,3,4-thiadiazol-2-yl}-2,4-difluorobenzamide]	34.5	–
O=C(Nc1nnc(NCC(c2ccccc2)c2ccccc2)s1)c1ccc([N+](=O)[O-])o1 [compound 306, N-{5-[(2,2-diphenylethyl)amino]-1,3,4-thiadiazol-2-yl}-5-nitro-2-furamide]	34.4	–
CC1(C)C2CC[C@@H](CNc3nnc(NC(=O)c4ccc(C#N)cc4)s3)C1C2 (stereo partly drawn) [compound 307, 4-cyano-N-[5-({[(2R)-6,6-dimethylbicyclo[3.1.1]hept-2-yl]methyl}amino)-1,3,4-thiadiazol-2-yl]benzamide]	34.2	–
O=C(Nc1nnc(NCCc2ccccc2)s1)c1ccc(Cl)cc1Cl [compound 308, 2,4-dichloro-N-[5-(phenethylamino)-1,3,4-thiadiazol-2-yl]benzamide]	34.2	–
CCSCCNc1nnc(NC(=O)c2ccc(Br)cc2)s1 [compound 309, 4-bromo-N-(5-{[2-(ethylsulfanyl)ethyl]amino}-1,3,4-thiadiazol-2-yl)benzamide]	34	–
COc1ccccc1C(=O)Nc1nnc(NC2CCCCCC2)s1 [compound 310, N-[5-(cycloheptylamino)-1,3,4-thiadiazol-2-yl]-2-methoxybenzamide]	34	–
NS(=O)(=O)c1ccc(CNc2nnc(NC(=O)c3ccc(Cl)c(Cl)c3)s2)cc1 [compound 311, N-(5-{[4-(aminosulfonyl)benzyl]amino}-1,3,4-thiadiazol-2-yl)-3,4-dichlorobenzamide]	33.9	–
